In brackets after ≈: the same amount, converted by molar mass.
What was measured:
[1] = target: T1, Potassium voltage-gated channel subfamily A member 5 (Homo sapiens, UniProt P22460); test: Inhibition of human Kv1.5 channel expressed in mouse L929 cells assessed as blockade of ultra rapidly activating potassium current at 1 uM by voltage clamp technique; type: cell-based
[2] = target: T1, Potassium voltage-gated channel subfamily A member 5; test: Inhibition of human Kv1.5 channel expressed in mouse L929 cells assessed as blockade of ultra rapidly activating potassium current by voltage clamp technique; type: cell-based
[3] = Aqueous solubility at pH 6.5; type: physicochemical

T1 sequence (P22460 whole entry): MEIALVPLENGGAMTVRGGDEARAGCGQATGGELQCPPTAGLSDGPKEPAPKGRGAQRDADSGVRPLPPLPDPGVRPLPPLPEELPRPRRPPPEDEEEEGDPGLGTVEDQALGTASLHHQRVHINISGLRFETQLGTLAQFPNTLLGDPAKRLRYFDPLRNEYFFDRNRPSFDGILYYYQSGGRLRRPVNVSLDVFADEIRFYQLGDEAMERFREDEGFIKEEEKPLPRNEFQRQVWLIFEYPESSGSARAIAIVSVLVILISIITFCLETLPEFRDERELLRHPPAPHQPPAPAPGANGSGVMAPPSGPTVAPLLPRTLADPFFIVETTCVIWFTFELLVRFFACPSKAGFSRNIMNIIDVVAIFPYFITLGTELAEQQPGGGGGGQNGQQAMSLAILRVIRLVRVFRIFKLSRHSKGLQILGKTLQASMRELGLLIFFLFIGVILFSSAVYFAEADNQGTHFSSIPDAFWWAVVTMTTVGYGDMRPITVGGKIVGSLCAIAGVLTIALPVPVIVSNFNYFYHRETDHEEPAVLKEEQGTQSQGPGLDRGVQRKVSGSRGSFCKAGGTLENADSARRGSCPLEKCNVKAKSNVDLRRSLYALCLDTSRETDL

inhibition [1] | IC50 [2] | solubility [3] | Structure (SMILES)
12% |  |  | CCc1ccc(S(=O)(=O)N[C@@H]2c3cc(C(=O)N(C)c4ccccc4)cnc3OC(C)(C)[C@H]2O)cc1 (racemic)
73% | 316 nM |  | CCc1ccc(S(=O)(=O)N[C@@H]2c3cc(C(=O)Nc4ccc(Br)cc4)ccc3OC(C)(C)[C@H]2O)cc1 (racemic)
89% | 378 nM | 108 µg/mL (≈ 212 µM) | CCc1ccc(S(=O)(=O)N[C@@H]2c3cc(C(=O)N(CC)c4ccccc4)cnc3OC(C)(C)[C@H]2O)cc1 (racemic)
87% |  |  | CCc1ccc(S(=O)(=O)N[C@@H]2c3cc(C(=O)N(C)c4ccccc4)ccc3OC(C)(C)[C@H]2O)cc1 (racemic)
70% | 605 nM |  | CCc1ccc(S(=O)(=O)N[C@@H]2c3cc(C(=O)N(CC)Cc4ccc(OC)cc4)cnc3OC(C)(C)[C@H]2O)cc1 (racemic)
3% |  |  | CCc1ccc(S(=O)(=O)N[C@@H]2c3cc(C(=O)Nc4nnc(C(F)(F)F)s4)cnc3OC(C)(C)[C@H]2O)cc1 (racemic)
2% |  |  | CCc1ccc(S(=O)(=O)N[C@@H]2c3cc(C(=O)N4CCN=C4c4ccccc4)cnc3OC(C)(C)[C@H]2O)cc1 (racemic)
 | 50 nM |  | CCc1ccc(S(=O)(=O)N[C@@H]2c3cc(NC(=O)c4cccc(OC)c4)ccc3C[C@H]2O)cc1
20% |  |  | CCc1ccc(S(=O)(=O)N[C@@H]2c3cc(C(=O)N(CC)Cc4ccccc4)cnc3OC(C)(C)[C@H]2O)cc1 (racemic)
31% |  |  | CCc1ccc(S(=O)(=O)N[C@@H]2c3cc(C(=O)Nc4cc(NC(C)=O)n[nH]4)cnc3OC(C)(C)[C@H]2O)cc1 (racemic)
8% |  |  | CCc1ccc(S(=O)(=O)N[C@@H]2c3cc(C(=O)Nc4ccc(Br)cc4)cnc3OC(C)(C)[C@H]2O)cc1 (racemic)
30% |  |  | CCc1ccc(S(=O)(=O)N[C@@H]2c3cc(C(=O)N4CCc5ccccc54)cnc3OC(C)(C)[C@H]2O)cc1 (racemic)
17% |  |  | CCc1ccc(S(=O)(=O)N[C@@H]2c3cc(C(=O)NCc4ccccc4)cnc3OC(C)(C)[C@H]2O)cc1 (racemic)
35% | 2090 nM |  | CCc1ccc(S(=O)(=O)N[C@@H]2c3cc(C(=O)N(CC)Cc4ccccc4OC)cnc3OC(C)(C)[C@H]2O)cc1 (racemic)
54% | 615 nM |  | CCc1ccc(S(=O)(=O)N[C@@H]2c3cc(C(=O)N(CC)Cc4c(F)cccc4Cl)cnc3OC(C)(C)[C@H]2O)cc1 (racemic)
22% |  |  | CCc1ccc(S(=O)(=O)N[C@@H]2c3cc(C(=O)N(CC)c4ccc(OC)cc4)cnc3OC(C)(C)[C@H]2O)cc1 (racemic)
 |  | 10 µg/mL (≈ 18.5 µM) | CCc1ccc(S(=O)(=O)N[C@@H]2c3cc(C(=O)N(CC)Cc4ccccc4F)ccc3OC(C)(C)[C@H]2O)cc1 (racemic)
 | 60 nM |  | CCc1ccc(S(=O)(=O)N[C@@H]2c3cc(C(=O)N4CCC[C@H]4CNc4c(C)cccc4C)ccc3OC(C)(C)[C@H]2O)cc1 (racemic)
58% | 776 nM |  | CCc1ccc(S(=O)(=O)N[C@@H]2c3cc(C(=O)N(CC)c4cccc(C)c4)cnc3OC(C)(C)[C@H]2O)cc1 (racemic)
4% |  |  | CCc1ccc(S(=O)(=O)N[C@@H]2c3cc(C(=O)NCc4ccccc4F)cnc3OC(C)(C)[C@H]2O)cc1 (racemic)
15% |  |  | CCc1ccc(S(=O)(=O)N[C@@H]2c3cc(C(=O)N4CCC[C@H]4CNc4c(C)cccc4C)cnc3OC(C)(C)[C@H]2O)cc1 (racemic)
15% | 1560 nM |  | CCc1ccc(S(=O)(=O)N[C@@H]2c3cc(C(=O)N(CC)Cc4ccc(C)cc4)cnc3OC(C)(C)[C@H]2O)cc1 (racemic)
64% | 649 nM |  | CCc1ccc(S(=O)(=O)N[C@@H]2c3cc(C(=O)N(CC)c4cccc(Cl)c4)cnc3OC(C)(C)[C@H]2O)cc1 (racemic)
52% | 912 nM |  | CCc1ccc(S(=O)(=O)N[C@@H]2c3cc(C(=O)N(CC)c4cc(F)ccc4F)cnc3OC(C)(C)[C@H]2O)cc1 (racemic)
12% |  |  | CCc1ccc(S(=O)(=O)N[C@@H]2c3cc(C(=O)N(C)Cc4ccccc4)cnc3OC(C)(C)[C@H]2O)cc1 (racemic)
 | 46 nM |  | CCc1ccc(S(=O)(=O)N[C@H]2CCCc3ccc(N(Cc4cccc(C)n4)C(=O)CCc4ccccc4)cc32)cc1
23% |  |  | CCc1ccc(S(=O)(=O)N[C@@H]2c3cc(C(=O)N(CC)Cc4cccc(OC)c4)cnc3OC(C)(C)[C@H]2O)cc1 (racemic)

Reference: ChEMBL document CHEMBL1144831, “Pyrano-[2,3b]-pyridines as potassium channel antagonists” (Bioorg Med Chem Lett, 2008)
